Test results reported in ChEMBL document CHEMBL1150436 (Bioorg Med Chem Lett, 1995).

Tests used:
[1] = biological target: T1, Serotonin 2 (5-HT2) receptor (Rattus norvegicus, UniProt P30994+P08909+P14842); test: Ability to displace [3H]ketanserin from serotonergic 5-hydroxytryptamine 2 receptor; type: protein assay
[2] = biological target: T2, D(2) dopamine receptor (Rattus norvegicus, UniProt P61169); test: Ability to displace [3H]spiperone from D2 dopamine receptor isolated from the striata of male Wistar rats
[3] = biological target: T3, 5-hydroxytryptamine receptor 1A (Rattus norvegicus, UniProt P19327); test: Ability to displace [3H]-8-OH-DPAT from serotonergic 5-hydroxytryptamine 1A receptor
T3 sequence (P19327 whole entry): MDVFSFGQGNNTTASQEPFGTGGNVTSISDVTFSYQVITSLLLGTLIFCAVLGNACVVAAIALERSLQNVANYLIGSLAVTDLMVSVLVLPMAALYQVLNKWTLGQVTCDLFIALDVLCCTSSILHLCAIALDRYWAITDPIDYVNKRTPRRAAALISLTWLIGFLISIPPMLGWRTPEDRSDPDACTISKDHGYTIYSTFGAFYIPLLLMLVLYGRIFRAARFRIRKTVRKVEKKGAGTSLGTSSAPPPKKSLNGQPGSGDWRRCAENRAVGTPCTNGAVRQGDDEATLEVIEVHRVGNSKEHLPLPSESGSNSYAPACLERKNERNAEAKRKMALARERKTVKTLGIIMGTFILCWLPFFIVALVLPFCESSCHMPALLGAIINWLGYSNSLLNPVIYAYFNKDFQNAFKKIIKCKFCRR

[4] = biological target: T2, D(2) dopamine receptor; test: Compound was evaluated for its ability to displace [3H]spiperone from D2 dopamine receptor isolated from the striata of male Wistar rats
[5] = biological target: T3, 5-hydroxytryptamine receptor 1A; test: Compound was evaluated for its ability to displace [3H]8-OH-DPAT from serotonergic 5-hydroxytryptamine 1A receptor
[6] = biological target: T1, Serotonin 2 (5-HT2) receptor; test: Compound was evaluated for its ability to displace [3H]ketanserin from serotonergic 5-hydroxytryptamine 2 receptor; type: protein assay

T2 sequence (P61169 whole entry): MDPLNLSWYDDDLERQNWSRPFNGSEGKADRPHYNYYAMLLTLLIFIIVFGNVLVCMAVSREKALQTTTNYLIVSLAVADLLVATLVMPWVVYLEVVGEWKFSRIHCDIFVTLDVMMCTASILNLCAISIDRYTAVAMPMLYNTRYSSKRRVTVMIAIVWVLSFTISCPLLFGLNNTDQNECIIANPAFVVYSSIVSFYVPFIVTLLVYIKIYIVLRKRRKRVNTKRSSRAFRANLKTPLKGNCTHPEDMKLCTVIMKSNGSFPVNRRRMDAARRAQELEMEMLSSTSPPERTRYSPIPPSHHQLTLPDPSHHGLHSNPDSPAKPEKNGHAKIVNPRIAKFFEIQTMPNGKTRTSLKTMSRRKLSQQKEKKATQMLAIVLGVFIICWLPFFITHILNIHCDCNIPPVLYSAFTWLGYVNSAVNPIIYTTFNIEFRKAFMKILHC

Compound	Ki [1]	Ki [2]	Ki [3]	Ki [4]	Ki [5]	Ki [6]
CCCCN1CCC[C@H]1CNC(=O)c1cc(SC)cc2c1OCCN2C	2100 nM	3.6 nM	19 nM	–	–	–
CN1CCOc2c(C(=O)NC[C@@H]3CCCN3Cc3ccccc3)cc(Cl)cc21	420 nM	310 nM	220 nM	–	–	–
CCN1CCC[C@@H]1CNC(=O)c1cc(Cl)cc2c1OCCN2C	> 1000 nM	> 1000 nM	> 1000 nM	–	–	–
CCCCCCCCCN1CCC[C@@H]1CNC(=O)c1cc(Cl)cc2c1OCC2	> 1000 nM	84 nM	330 nM	–	–	–
CCN1CCC[C@H]1CNC(=O)c1cc(Cl)cc2c1OCC2	> 1000 nM	6.5 nM	> 1000 nM	–	–	–
CCCCN1CCC[C@@H]1CNC(=O)c1cc(Cl)cc2c1OCC(=O)N2C	> 1000 nM	> 1000 nM	> 1000 nM	–	–	–
CCCCCCCCCN1CCC[C@@H]1CNC(=O)c1cc(Cl)cc2c1OCCN2C	–	–	–	690 nM	> 1000 nM	> 1000 nM
CCCCN1CCC[C@@H]1CNC(=O)c1cc(SC)cc2c1OCCN2C	22 nM	17 nM	120 nM	–	–	–
CCCCN1CCCC1CNC(=O)c1cc(S(N)(=O)=O)cc2c1OCCN2C (centres undefined)	–	–	–	670 nM	450 nM	3000 nM
CCCCN1CCCC1CNC(=O)c1cccc2c1OCCN2C (centres undefined)	–	–	–	270 nM	170 nM	2200 nM
CN1CCOc2c(C(=O)NC[C@@H]3CCCN3CCc3ccccc3)cc(Cl)cc21	–	800 nM	10 nM	–	–	–
CCCCCCCCCN1CCC[C@H]1CNC(=O)c1cc(Cl)cc2c1OCC2	> 1000 nM	> 1000 nM	570 nM	–	–	–
CCCCN1CCC[C@@H]1CNC(=O)c1cc(S(N)(=O)=O)ccc1OC	–	–	–	–	4500 nM	> 1000 nM
CCN1CCC[C@H]1CNC(=O)c1cc(Cl)cc2c1OCCN2C	> 1000 nM	16 nM	> 1000 nM	–	–	–
CCCCCCCCCN1CCC[C@H]1CNC(=O)c1cc(Cl)cc2c1OCC(=O)N2C	> 1000 nM	> 1000 nM	> 1000 nM	–	–	–
CCN1CCC[C@@H]1CNC(=O)c1cc(Cl)cc2c1OCC(=O)N2C	> 1000 nM	> 1000 nM	> 1000 nM	–	–	–

Compound	Ki [1]	Ki [2]	Ki [3]	Ki [4]	Ki [5]	Ki [6]
CCCCN1CCC[C@@H]1CNC(=O)c1cc(Cl)cc2c1OCC2	400 nM	–	330 nM	–	–	–
CSc1cc(C(=O)NC[C@H]2CCCN2Cc2ccccc2)c2c(c1)N(C)CCO2	27 nM	4.2 nM	17 nM	–	–	–
CN1CCOc2c(C(=O)NC[C@H]3CCCN3Cc3ccccc3)cc(Cl)cc21	99 nM	210 nM	21 nM	–	–	–
CN1CCOc2c(C(=O)NC[C@H]3CCCN3CCc3ccccc3)cc(Cl)cc21	1700 nM	57 nM	35 nM	–	–	–
CCCCN1CCC[C@H]1CNC(=O)c1cc(Cl)cc2c1OCCN2C	–	–	–	12 nM	34 nM	–
CCCCCCCCCN1CCC[C@@H]1CNC(=O)c1cc(S(N)(=O)=O)ccc1OC	3700 nM	92 nM	16 nM	–	–	–
CSc1cc(C(=O)NC[C@@H]2CCCN2Cc2ccccc2)c2c(c1)N(C)CCO2	550 nM	270 nM	880 nM	–	–	–
CCCCCCCCCN1CCC[C@H]1CNC(=O)c1cc(S(N)(=O)=O)ccc1OC	2300 nM	180 nM	81 nM	–	–	–
CCCCCCCCCN1CCC[C@@H]1CNC(=O)c1cc(Cl)cc2c1OCC(=O)N2C	> 1000 nM	> 1000 nM	> 1000 nM	–	–	–
CCN1CCC[C@@H]1CNC(=O)c1cc(Cl)cc2c1OCC2	> 1000 nM	> 1000 nM	> 1000 nM	–	–	–
CCN1CCC[C@H]1CNC(=O)c1cc(Cl)cc2c1OCC(=O)N2C	> 1000 nM	> 1000 nM	> 1000 nM	–	–	–
CCCCN1CCC[C@@H]1CNC(=O)c1cc(Cl)cc2c1OCCN2C	–	–	–	630 nM	430 nM	–
CCCCN1CCC[C@H]1CNC(=O)c1cc(Cl)cc2c1OCC(=O)N2C	> 1000 nM	> 1000 nM	> 1000 nM	–	–	–
CCCCCCCCCN1CCC[C@H]1CNC(=O)c1cc(Cl)cc2c1OCCN2C	–	–	–	750 nM	280 nM	> 1000 nM
CCCCN1CCC[C@H]1CNC(=O)c1cc(S(N)(=O)=O)ccc1OC	–	–	–	–	1200 nM	> 1000 nM
CCCCN1CCC[C@H]1CNC(=O)c1cc(Cl)cc2c1OCC2	3300 nM	–	18 nM	–	–	–
